Results from US8586629B2, “Composition for the treatment of oxidative stress” (Probiox SA, priority 2008, dated 2013).
Where two headings read alike, the source gives them in different places.

Assays:
oxidized LDL = experiment: Clinical study: plasma oxidized LDL in women under Yasmin; type: in vivo; details: for number of responders (minimum of 35% decrease of oxLDL): T4 versus T0; for effect on LDL oxidation: general conclusion; for oxLDL at T4 compared to T0: plasma, within arm
From the text: (§1) Subjects: 60 women were selected on the basis of the below-mentioned selection criteria and divided into 4 groups. Keeping a possible dropout in mind (in total 45 women completed the study), these groups were designed such, that by the end of the study; groups SOCO_A and SOCO_D would contain 15 subjects; and groups SOCO_B and SOCO_C would contain 10 subjects.
(§2) Inclusion Criteria: • Age: between 18 and 35 years • Informed consent collected • Patients under oral contraception with Yasmin for at least three months
(§3) Whereby one menstrual cycle is flanked by 2 vertical lines and, whereby: • SOCO_A) represents the intake of a combination of a Zinc supplement and a Quercetin supplement • SOCO_B) represents the intake of a Zinc supplement • SOCO_C) represents the intake of a Quercetin supplement • SOCO_D) represents the intake of a placebo supplement
(§4) And whereby: • V1 represents a first visit between day −42 and day −14 • V2 represents a second visit between day −7 and −3 • V3 represents a third visit between day 23 and 27 • V4 represents a fourth visit between day 51 and 55 • V5 represents a fifth visit between day 113 and 117
(§5) SOCO_A: Quercetin DC 500 mg • Zinc picolinate 20% (elementary 22.5 mg) 113 mg • Magnesium stearate 3 mg • 1 capsule per day during 112 days
(§6) SOCO_B: Zinc picolinate 20% (elementary 22.5 mg) 113 mg • Dicalcium phosphate 125 mg • Cellulose microcrystals 375 mg • Magnesium stearate 3 mg • 1 capsule per day during 112 days
(§7) SOCO_C: Quercetin DC 500 mg • Dicalcium phosphate 85 mg • Cellulose microcrystals 28 mg • Magnesium stearate 3 mg • 1 capsule per day during 112 days
(§8) SOCO_D: Dicalcium phosphate 460 mg • Cellulose microcrystals 153 mg • Magnesium stearate 3 mg • 1 capsule per day during 112 days
(§9) A blood sample (2-3 tubes of +/−5 ml) was collected during each visit. A maximum of 60 ml blood was required per subject for the whole study. Blood samples for haematological and biochemical tests were collected during V1 and V5, and blood samples for oxidative stress assessment were collected during V2, V3, V4 and V5.
(§10) Plasma concentration of lipid peroxides, copper and zinc were determined in blood samples taken at V2, V3, V4 and V5. Plasma concentration of oxidized LDL was determined in blood samples taken at V2 and V5. The expression of 200 genes involved in oxidative stress were determined via quantitative measurements of mRNA expression by microarray, in blood samples taken at V2 and V5.

LDL [1] = details: in vitro; cited from earlier work
[2] = supplementation; cited from earlier work
[3] = 6 week supplementation; cited from earlier work
[4] = zinc supplemented group; cited from earlier work
LDL [5] = details: zinc supplementation; cited from earlier work
[6] = hypobaric hypoxia studies and COPD study; cited from earlier work
[7] = zinc supplementation; cited from earlier work
[8] = Clinical study: plasma lipid peroxides, copper and zinc in women under Yasmin; type: in vivo
From the text: as §1, §2, §3, §4, §5, §6, §7, §8, §9, §10

Compound: O=c1c(O)c(-c2ccc(O)c(O)c2)oc2cc(O)cc(O)c12 [quercetin alone, Quercetin]
- number of responders (minimum of 35% decrease of oxLDL) (oxidized LDL): 0%
- effect on LDL oxidation (oxidized LDL): weak effect
- oxLDL at T4 compared to T0 (oxidized LDL): weak significant decrease

Compound: O=c1c(O)c(-c2ccc(O)c(O)c2)oc2cc(O)cc(O)c12 [quercetin]
- inhibition of oxidative damage to LDL (LDL [1]): most effective inhibitor
- protection from oxidative stress induced damage [2]: does not exert protection

Compound: C[C@@H]1O[C@@H](OC[C@H]2O[C@@H](Oc3c(-c4ccc(O)c(O)c4)oc4cc(O)cc(O)c4c3=O)[C@H](O)[C@@H](O)[C@@H]2O)[C@H](O)[C@H](O)[C@H]1O [rutin]
- levels of three plasma flavonoids [3]: significantly elevated

Compound: [Zn] [zinc]
- incidence of infection [4]: significantly lower
- lipid peroxides [4]: significant diminution
- Cu-induced LDL oxidation (LDL [5]): no effects
- oxidative stress markers [6]: no effects
- oxidative stress markers [7]: did not alter

Compound: Zinc picolinate [Zinc alone]
- number of responders (minimum of 35% decrease of oxLDL) (oxidized LDL): 0%
- effect on LDL oxidation (oxidized LDL): No effect
- oxLDL at T4 compared to T0 (oxidized LDL): no significant changes
- mean relative change in Cu/Zn between T4 and T0 (mean Cu/Zn decrease) ([8]; compared to placebo): significant
- mean relative change in Zn between T4 and T0 (mean zinc increase) ([8]; compared to placebo): significant
- mean relative change in Cu/Zn between T4 and T0 (mean Cu/Zn decrease) ([8]; compared to quercetin alone): significant
- mean relative change in Zn between T4 and T0 (mean zinc increase) ([8]; compared to quercetin alone): significant
